Measurements taken from paper PMC4569406, “Identification of Tetraazacyclic Compounds as Novel Potent Inhibitors Antagonizing RORγt Activity and Suppressing Th17 Cell Differentiation” (PLoS ONE, 2015).
“Also recorded” adds a separate entry of the source.

Legend:
RORγt-LBD [1] = biological target: T1, RORγt-LBD (Homo sapiens, UniProt P51449); experiment: Inhibition of RORγt activity in RORγt+-293T stable reporter cells (luciferase); format: cell-based
T1 sequence (P51449 269-508 limits assumed): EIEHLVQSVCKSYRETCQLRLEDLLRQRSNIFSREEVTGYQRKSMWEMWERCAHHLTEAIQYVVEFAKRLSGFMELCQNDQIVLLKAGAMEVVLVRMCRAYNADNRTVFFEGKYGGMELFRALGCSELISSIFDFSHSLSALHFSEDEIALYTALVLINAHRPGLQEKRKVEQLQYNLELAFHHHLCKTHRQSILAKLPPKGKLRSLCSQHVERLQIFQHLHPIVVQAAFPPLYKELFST
Description: (§1) The pGL4.31[luc2P/GAL4UAS/Hygro] reporter plasmid and the pBIND vector were purchased from Promega (USA). The fragment of IRES-GFP was first inserted into NotI sites of pBIND. Human RORγtLBD was amplified from cDNA of human PBMC (cDNA is provided by Dr. Hui Zhang) and then cloned into the pBIND-IRES-GFP to generate the fusion sequence Gal4DBD-RORγtLBD-IRES-GFP. The primers that were used to construct the pBIND-Gal4DBD-RORγtLBD-IRES-GFP plasmid are shown as follows: RORγtLBD forward 5’- […]-3’, reverse 5’- […] -3’.
The 4 μg pGL4.31 reporter plasmids (promega, USA) were transfected into 293T cells (1 x 10^6) with Lipofectamin^TM 2000 (Invitrogen, USA) according to the manufacturer’s instructions. The transfected cells were then selected in medium containing 100 μg/mL hygromycin B (Roche, USA) for 3 weeks to obtain a stable clone which express pGL4.31 reporter gene. Then 4 μg pBIND-RORγtLBD-IRES-GFP plasmids were also transfected into the stable clone. The second transfected cells were sorted by Green Fluorescent Protein (GFP). Through this process, we obtained the 293T-RORγt stable reporter cell line. GFP^+-293T stable cell purity was determined >96% by flow cytometry analysis, which yielded a RORγt^+-293T (RORγt-LBD positive 293T cells) stable reporter cell line, and GFP^--293T stable cells were also sorted and used as a RORγt negative control cell line (Fig 1).
RORγt^+-293T stable cells (1x10^4) were seeded into 96-well plates (Corning, Costar)and incubated in DMEM complete medium overnight. Then the candidates were added with a final concentration of 5 μM. Negative control (DMSO) and positive control were carried on as HTS. 6 hours later, the cells were then lysed and assayed for luciferase activity (Promega, USA) following the manufacturer’s instructions.

RORγt--Jurkat cells = experiment: Luciferase reporter activity in RORγt--Jurkat (RORγt-LBD negative) control cells; format: cell-based; settings: different concentrations of PMA (100 nM, 10 nM, 1 nM), 4 and 6 hr
Procedure: (§2) Similar to the above procedure, to obtain the needed Jurkat-RORγt reporter cell lines, a total of 1x10^7 Jurkat cells were transfected with 20 μg pGL4.31 reporter plasmids by electroporation (Lonza, Swiss) according to the manufacturer’s instructions. The transfected Jurkat cells were also selected in RPMI 1640 medium containing 200 μg/mL hygromycin B. And then the 20 μg PBIND-RORγtLBD-IRES-GFP plasmids were also transfected into the stable Jurkat clone and were sorted by GFP. GFP^+-Jurkat stable cell purity was determined >96% by flow cytometry analysis and GFP^--Jurkat stable cells were also sorted (Fig 1).
RORγt^+-Jurkat (RORγt-LBD positive Jurkat cells) and RORγt^--Jurkat (RORγt-LBD negative Jurkat cells) stable cells (1x10^5) were seeded onto separate 12-well plates and cultured overnight. Cells were then stimulated with different concentrations of PMA (100 nM, 10 nM, 1 nM) or DMSO (negative control) for 4, 6, and 8 hr. […] Luciferase activity was highest in cells cultured with 100nM PMA, it was at approximately 40-fold over the DMSO control (Fig 2A and 2B). When RORγt^+-Jurkat cells were cultured for 6 hr, the luciferase activity was nearly identical across the concentrations and increased from control by about 40-fold at various concentrations (Fig 2D and 2E). […]

RORγt-LBD [2] = biological target: T1, RORγt-LBD; experiment: Gal4-RORγtLBD luciferase reporter assay in RORγt+-Jurkat stable cells (HTS / EC50 assay); format: cell-based; parameters: Human RORγtLBD was amplified from cDNA of human PBMC; expressed in transfected cells; host or cells: Jurkat cells stably carrying pGL4.31[luc2P/GAL4UAS/Hygro], GFP-sorted; settings: for EC50: 5 μM to 8 nM 5-fold gradient, read-out: EC50 (anti-RORγt activity, relative luciferase activity)
Description: as §1, §2
RORγt^+-Jurkat stable cells (2x10^4) were seeded into 96-well round-bottom plates (Corning, Costar)and incubated in RPMI1640 complete medium overnight. At initial round screening, drug-like set compounds (Enamine, Monmouth Jct, NJ) were added using a Tecan Freedom EVO150 (Tecan, Männedorf, Schweiz) with a final concentration of 50 μM, which used by other research. 50 μM concentration is pretty high in drug screening and always raises many false positive. To reduce these false positive, we reduced the compounds concentration to 5 μM in the second round validation screening. Column 12 of each plate received only DMSO instead of any compounds as a negative control. In addition, column 1 of each plate was treated with 100 nM PMA (Sigma-Aldrich, USA) as a positive control. 6 hours later, the cells were then lysed and assayed for luciferase activity (Promega, USA) following the manufacturer’s instructions.
Jurkat-RORγt^+ stable cells were seeded into 96-well round-bottom plates (2x10^4) overnight and incubated with the compounds by 5-fold gradient, with final concentrations from 5μM to 8nM. 6h later, the cells were then lysed and assayed for luciferase activity (Promega, USA) following the manufacturer’s instructions. The values of half-maximal effective concentration (EC50) were determined by plotting the logarithm of compound concentration versus relative luciferase activity.
The EC50 and CC50 of all three compounds were determined to further identify the effects of these three tetraazacyclic compounds. […] The CC50 values of each compound in Jurkat cells were also determined as previously described in the methods section.

[3] = tested on: Th17 cell differentiation; parameters: method as in PMID 21499262, PMID 22769242; settings: cited from earlier work
[4] = tested on: Th17 cell differentiation; experiment: Th17 differentiation of mouse CD4+CD25- T cells, qPCR of Rorγt, Il17a, Il17f; format: cell-based; settings: 5 μM, normalized to Gapdh; for attenuation of Il17a mRNA expression vs vehicle-treated control: Th17 polarizing conditions (TGF-β, IL-6); for suppression of Il17f mRNA expression: Th17 polarizing conditions
Description: (§3) CD4^+CD25^- T cells were isolated from spleens of 12-week-old C57BL/6 as follows: single-cell suspensions were made by crushing the spleen through a cell strainer, and red blood cells (RBCs) were lysed with an RBC lysis buffer. CD4^+ T cells were then purified using MACS magnetic cell column with a CD4^+ T cell isolation kit (Miltenyi, Biotec) according to the manufacturer’s protocol. Isolated cells were fluorescently stained with PE-conjugated anti-mouse TCR-βAb, PE-Cy7-conjugated anti-mouse CD4 Ab and APC-conjugated anti-mouse CD25 Ab (BD Bioscience, USA) and analyzed by flow cytometry.
(§4) The isolated CD4^+CD25^- T cells (3x10^6) were cultured under Th17 conditions. […] Specifically, the isolated CD4^+CD25^- T cells (3x10^6) were stimulated (in 6-well plates) with 5 μg/ml plate-bound anti-CD3e antibody (eBioscience, USA) and 2 μg/ml soluble anti-CD28 Ab (eBioscience, USA) for 24 hours. Then the activated cells were collected, resuspended and seeded into 96-well round-bottom plates (2x10^4) for Th17 differentiation in the presence of 5 ng/ml recombinant human TGF-β, 30 ng/ml recombinant mouse IL-6 (R&D systems) and DMSO as control or hit compounds with a final concentration of 5 μM. The cells were cultured for 2 days. Later, fresh medium was added (100ul/well) containing recombinant human TGF-β, recombinant mouse IL-6 (R&D systems) and the hit compounds as previously introduced for culturing another 2 days.
After 5 days of culture, splenocyte total RNA was extracted with TRIzol (Invitrogen, USA). Then about 1000ng total RNA was added to a 20 μL reaction volume for reverse transcriptions by the GoScript Reverse Transcription System (Promega, USA) according to the manufacturer’s instructions, followed by real-time quantification using GoTaq qPCR Master Mix (Promega, USA). Gene expression of mouse Rorγt, Il17a and Il17f was normalized to the expression of Gapdh. The following primer sequences were used: Rorc forward 5’-TGTAATGTGG CCTACTCCTGCA-3’, reverse 5’-[…]-3’; Il17a forward 5’-[…]-3’, reverse 5’-[…]-3’; Il17f forward 5’-[…]-3’, reverse 5’- […]-3’; Gapdh forward 5’-[…]-3’, reverse 5’-[…]-3’.

IL-17A secretion = IL-17A secretion by ELISA under Th17 polarizing conditions; format: cell-based, mouse; settings: 5 μM; for IL-17A concentration in supernatant / reduction of IL-17A secretion vs vehicle-treated control cells: Th17 polarizing conditions, ELISA
Description: as §3, §4
After 5 days of culture, the concentration of IL-17A in the supernatant was determined by an ELISA kit according to the manufacturer’s protocol (CUSABIO Systems, China).

[5] = Cell viability (MTT) assay; format: cell-based; settings: human, wild type Jurkat cells, highest concentration 5 μM
Procedure: The cell viabilities of Jurkat cells (wild type) after treatment with chemicals were assessed by MTT technique. In brief, wild type Jurkat cells were seeded (2x10^4) and incubated with the compounds by 5-fold gradient concentrations, as described above. 48h treatment later, MTT (Dimethylthiazolyl-2-5-diphenyltetrazolium bromide) dye solution (Sigma, USA) was added into the 96-well plate and incubated at 37°C for 4 h, MTT is cleaved by live cells to a colored formazan product. After centrifugation (1500rpm, 5min) the supernatant was discarded. 100μl DMSO was added to dissolve the formazan product and gently shaken for 10min. Absorbance at 570 nm wavelength was recorded using a Thermo Scientific Multiskan FC (Thermo Scientific, USA). Each treatment was repeated in quadruplicate. Cell viabilities were defined relative to control cells (DMSO treated). The half-maximal cytotoxic concentration (CC50) for each compound was calculated from these dose-response curves with the aid of Graphpad Prism software (GraphPad Software, CA).

Structure (SMILES) | greatest increase in luciferase activity vs DMSO (RORγt-LBD [1]; RORγt+-293T cells, 100 nM PMA, 4 hr and 6 hr) | luciferase activity in RORγt--Jurkat cells (RORγt--Jurkat cells) | luciferase activity, fold over DMSO control (RORγt-LBD [2]; RORγt+-Jurkat cells, 100 nM PMA, 4 hr) | luciferase activity, fold increase from control (RORγt-LBD [2]; RORγt+-Jurkat cells, 100 nM, 10 nM, 1 nM PMA, 6 hr) | activity in Th17 cell differentiation study [3] | inhibition at 5 µM (RORγt-LBD [1]; 5 μM, 6 h, vs vehicle control) [%] | attenuation of Il17a mRNA expression vs vehicle-treated control [4] | suppression of Il17f mRNA expression [4] | IL-17A concentration in supernatant (IL-17A secretion) [pg/mL] | reduction of IL-17A secretion vs vehicle-treated control cells (IL-17A secretion) [%] | suppression / reduction in IL-17A production (Discussion summary) (IL-17A secretion; mouse Th17 differentiation, for 11 and 14 both mRNA expression and protein secretion) | CC50 at 48 h [5] [nM] | inhibition at 5 µM (RORγt-LBD [2]; 5 μM, 6 hr, vs vehicle control) [%] | EC50 (RORγt-LBD [2]; RORγt+-Jurkat cells, 6 hr) [nM] | inhibition of reporter activity in RORγt+-293T cells (RORγt-LBD [1]; 5 μM, 6 h, vs vehicle control)
CCCCCCCCCCCCCC(=O)O[C@@H]1[C@@H](C)[C@@]2(O)[C@@H](C=C(CO)C[C@]3(O)C(=O)C(C)=C[C@@H]23)[C@@H]2C(C)(C)[C@]12OC(C)=O [PMA, phorbol-12-myristate-13-acetate, reference compound] | 4–6 folds | no significant increase | approximately 40 fold | approximately 40 fold |  |  |  |  |  |  |  |  |  |  | 
CC(=O)Nc1nc(C)c(S(=O)(=O)Nc2ccc(C(O)(C(F)(F)F)C(F)(F)F)cc2)s1 [SR1001] |  |  |  |  | relatively weak activity |  |  |  |  |  |  |  |  |  | 
CCN(CC)Cc1nc(Sc2nnnn2-c2ccccc2)c2c(C)c(C)sc2n1 [compound 7, N-[[5,6-dimethyl-4-(1-phenyltetrazol-5-yl)sulfanylthieno[3,2-e]pyrimidin-2-yl]methyl]-N-ethylethanamine] |  |  |  |  |  | 95 | 65%-80% | 87% | 196 | 47 | ~ 50% | 1500 | 75 | 2600 | 
Cc1ccccc1-n1nnnc1Sc1ccnc2cc(Cl)ccc12 [compound 11, 7-chloro-4-[1-(2-methylphenyl)tetrazol-5-yl]sulfanylquinoline] |  |  |  |  |  |  | 65%-80% | 90% | 136 | 63 |  | > 5000 |  | 250 | significantly less inhibition
Cc1cccc(C)c1-n1nnnc1Sc1ncnc2ccsc12 [compound 14, 4-[1-(2,6-dimethylphenyl)tetrazol-5-yl]sulfanylthieno[3,2-d]pyrimidine] |  |  |  |  |  |  | 65%-80% | did not significantly inhibited; also recorded: no significant inhibition | 88 | 74 |  | > 5000 |  | 670 | significantly less inhibition
